Source: patent publication EP0908457B1, “3-(1,2-benzisothiazol- and isoxazol-5-Y1)-2,4(1H,3H)-pyrimidinedione or thione and 3-(1,2-benzisothiazol- and isoxazol-5-y1)-4(3H)-pyrimidinone or thione herbicidal agents” (BASF AKTIENGESELLSCHAFT, priority 1997, dated 1999)

Assays:
Type in all cases: in vivo
[1] = system: Cyperus serotinus, Rottb.; assay: Preemergence weed control under flooded paddy conditions, CYPSE (Flatsedge); details: rated three to four weeks after treatment; on herbicidal effect rating, CYPSE: meaning of each grade not given here
[2] = system: Monochoria vaginalis, Presl.; assay: Preemergence weed control under flooded paddy conditions, MOOVA (Monochoria); details: flooded paddy, rated three to four weeks after treatment; on herbicidal effect rating, MOOVA: meaning of each grade not given here
[3] = system: Sagittaria pygmaea, L.; assay: Preemergence weed control under flooded paddy conditions, SAGPY (Arrowhead (Pygmaea)); details: flooded paddy, rated three to four weeks after treatment; on herbicidal effect rating, SAGPY: meaning of each grade not given here
[4] = system: Cyperus iria; assay: Preemergence weed control under flooded paddy conditions, CYPIR (Rice Flatsedge); details: flooded paddy, rated three to four weeks after treatment; on herbicidal effect rating, CYPIR: meaning of each grade not given here
[5] = system: Echinochloa oryzoides (Ard.) Fritsch.; assay: Preemergence weed control under flooded paddy conditions, ECHORC (Watergrass (Calif.)); details: flooded paddy, rated three to four weeks after treatment; on herbicidal effect rating, ECHORC: meaning of each grade not given here
[6] = Rate 0.0313 kg/ha, preemergence
[7] = Rate 0.0625 kg/ha, preemergence
[8] = Rate 0.1250 kg/ha, preemergence
[9] = Rate 0.2500 kg/ha, preemergence
[10] = Rate 0.0320 kg/ha, preemergence
[11] = Rate 0.0620 kg/ha, preemergence
[12] = 0.0313 kg/ha, preemergence weeds
[13] = 0.0625 kg/ha, preemergence weeds
[14] = 0.1250 kg/ha, preemergence weeds
[15] = 0.2500 kg/ha, preemergence weeds

Cn1c(C(F)(F)F)cc(=O)n(-c2ccc3snc(COC(=O)c4ccc(Cl)nc4)c3c2)c1=O [Example 481, 2,4(1H,3H)-Pyrimidinedione, 3-[3-(hydroxymethyl)-1,2-benzisothiazol-5-yl]-1-methyl-6-(trifluoromethyl)-, 6-chloronicotinate (ester)]
0.0: SAGPY herbicidal rating ([3]; 0.0320 kg/ha, preemergence) | SAGPY herbicidal rating ([3]; 0.0620 kg/ha, preemergence) | SAGPY herbicidal rating ([3]; 0.1250 kg/ha, preemergence) | CYPIR herbicidal rating ([4]; 0.0320 kg/ha, preemergence) | ECHORC herbicidal rating ([5]; 0.0320 kg/ha, preemergence)
2.0: CYPIR herbicidal rating ([4]; 0.0620 kg/ha, preemergence) | ECHORC herbicidal rating ([5]; 0.0620 kg/ha, preemergence)
7.0: MOOVA herbicidal rating ([2]; 0.0620 kg/ha, preemergence) | MOOVA herbicidal rating ([2]; 0.1250 kg/ha, preemergence)
6.0: CYPSE herbicidal rating ([1]; 0.2500 kg/ha, preemergence) | MOOVA herbicidal rating ([2]; 0.0320 kg/ha, preemergence) | CYPIR herbicidal rating ([4]; 0.1250 kg/ha, preemergence)
9.0: MOOVA herbicidal rating ([2]; 0.2500 kg/ha, preemergence) | CYPIR herbicidal rating ([4]; 0.2500 kg/ha, preemergence) | ECHORC herbicidal rating ([5]; 0.1250 kg/ha, preemergence) | ECHORC herbicidal rating ([5]; 0.2500 kg/ha, preemergence)

CC(OCc1nsc2ccc(-n3c(=O)cc(C(F)(F)F)n(C)c3=O)cc12)C(F)(F)F (stereo not shown) [Example 208]
2.0: MOOVA herbicidal effect rating [2, 7] | MOOVA herbicidal effect rating [2, 8]
9.0: CYPIR herbicidal effect rating [4, 6] | CYPIR herbicidal effect rating [4, 7] | CYPIR herbicidal effect rating [4, 8] | CYPIR herbicidal effect rating [4, 9]
4.0: MOOVA herbicidal effect rating [2, 9]
0.0: CYPSE herbicidal effect rating [1, 6] | CYPSE herbicidal effect rating [1, 7] | CYPSE herbicidal effect rating [1, 8] | CYPSE herbicidal effect rating [1, 9] | MOOVA herbicidal effect rating [2, 6] | SAGPY herbicidal effect rating [3, 6] | SAGPY herbicidal effect rating [3, 7] | SAGPY herbicidal effect rating [3, 8] | SAGPY herbicidal effect rating [3, 9] | ECHORC herbicidal effect rating [5, 6] | ECHORC herbicidal effect rating [5, 7] | ECHORC herbicidal effect rating [5, 8] | ECHORC herbicidal effect rating [5, 9]

Cn1c(C(F)(F)F)cc(=O)n(-c2ccc3snc(C(Cc4ccccc4)S(C)(=O)=O)c3c2)c1=O (stereo not drawn) [Example 604, 2,4(1H,3H)-Pyrimidinedione, 1-methyl-3-{3-[alpha(methylsulfonyl)phenethyl]-1,2-benzisothiazol-5-yl}-6-(trifluoromethyl)-]
7.0: herbicidal effect rating, MOOVA [2, 8] | herbicidal effect rating, ECHORC [5, 10] | herbicidal effect rating, ECHORC [5, 11] | herbicidal effect rating, ECHORC [5, 8]
5.0: herbicidal effect rating, MOOVA [2, 10]
0.0: herbicidal effect rating, CYPSE [1, 10] | herbicidal effect rating, CYPSE [1, 11] | herbicidal effect rating, CYPSE [1, 8] | herbicidal effect rating, CYPSE [1, 9] | herbicidal effect rating, SAGPY [3, 10] | herbicidal effect rating, SAGPY [3, 11] | herbicidal effect rating, SAGPY [3, 8] | herbicidal effect rating, SAGPY [3, 9] | herbicidal effect rating, CYPIR [4, 10]
6.0: herbicidal effect rating, MOOVA [2, 11] | herbicidal effect rating, CYPIR [4, 9]
3.0: herbicidal effect rating, CYPIR [4, 11]
8.0: herbicidal effect rating, MOOVA [2, 9]
4.0: herbicidal effect rating, CYPIR [4, 8]
9.0: herbicidal effect rating, ECHORC [5, 9]

Cc1ccc(OCC(=O)OC(C)C(=O)O)c(-c2nsc3ccc(-n4c(=O)cc(C(F)(F)F)n(C)c4=O)cc23)c1 (racemic) [Example 190, 2-{{2-{5-[3,6-Dihydro-3-methyl-2,6-dioxo-4-(trifluoromethyl)-1(2H)-pyrimidinyl]-1,2-benzisothiazol-3-yl}-p-tolyl}oxy}acetoxy}-propionic acid, DL-]
7.0: herbicidal effect rating, ECHORC [5, 14]
2.0: herbicidal effect rating, CYPIR [4, 14] | herbicidal effect rating, ECHORC [5, 12]
8.0: herbicidal effect rating, ECHORC [5, 15]
0.0: herbicidal effect rating, CYPSE [1, 12] | herbicidal effect rating, CYPSE [1, 13] | herbicidal effect rating, CYPSE [1, 14] | herbicidal effect rating, CYPSE [1, 15] | herbicidal effect rating, SAGPY [3, 12] | herbicidal effect rating, SAGPY [3, 13] | herbicidal effect rating, SAGPY [3, 14] | herbicidal effect rating, SAGPY [3, 15] | herbicidal effect rating, CYPIR [4, 12] | herbicidal effect rating, CYPIR [4, 13]
4.0: herbicidal effect rating, CYPIR [4, 15] | herbicidal effect rating, ECHORC [5, 13]
9.0: herbicidal effect rating, MOOVA [2, 12] | herbicidal effect rating, MOOVA [2, 13] | herbicidal effect rating, MOOVA [2, 14] | herbicidal effect rating, MOOVA [2, 15]
